The text below walks through data of patent US20060211684A1, “Use of alpha-2 adrenergic receptor agonists” (Perlegen Sciences, Inc., priority 2005, published 2006).

For data set [1] the following is noted: cited from earlier work.
For data set [2] the following is noted: cited from earlier work. This is another data set of the same source.
Data set [3] relates to transverse aortic constricted α2C−/−mice. On the procedure:
This example tests whether treatment of α2C−/−knockout transgenic mice with the partial α2A agonist, clonidine, improves cardiac function and reduces ventricular hypertrophy after left ventricular pressure overload. In other words, the example tests whether clonidine-mediated activation of α2A-receptors compensates for the loss of functional α2C. The mice used in this experiment are described in more detail in Brede et al., Circulation 106, 2491-2496 (2002). […] Mice were treated with 200 μg/kg/day clonidine or vehicle for four weeks. Three mice were treated with clonidine and three with vehicle in the initial experiment.

The conditions of data set [4]: after ingestion; cited from earlier work.
[5] abbreviates: initial experiment, 200 μg/kg/day for four weeks, three mice clonidine, three vehicle, FIG. 1.
The mark [6] stands for this setting: second experiment, 200 μg/kg/day for 4 weeks via osmotic minipumps, n=5 clonidine, n=6 vehicle.

Where two headings read alike, the source gives them in different places.

For the molecule `Clc1cccc(Cl)c1NC1=NCCN1` [clonidine, N-(2,6-dichlorophenyl)-4,5-dihydro-1 H-imidazol-2-amine], the “time to peak plasma concentrations” value in data set [1] (after a single oral dose) is 3 to 5 h. For the same molecule, the CNS penetration result in data set [1] (because of lipid solubility) was “excellent”. Also, the “time to steady state levels” value in data set [1] (dermal application) is given as “several days”. Besides, in data set [1] (in vivo), the “absorption from the gastrointestinal tract” value was “rapidly absorbed”; the elimination result is “excreted unchanged in the urine and metabolized by the liver”. Besides, the side effects entry in data set [2] (therapeutic doses typically used (0.2-0.9 mg/day)) was “dryness of the mouth, dizziness, sedation, and constipation”. In data set [2] (toxic doses, children and adults), the toxic effects result is “serious cardiopulmonary instability and central nervous system depression”. Moreover, in data set [3] (FIGS. 1 and 2), the hypertrophy result is “prevents and reduces”; the “left ventricular systolic pressures” value was “slightly reduced”; the ventricular contractility result is recorded as “maintained”. Besides, in data set [3] (setting [5]), the “contractility of the heart” value is given as “did not effect”, the “left ventricular systolic pressure” value is “reduced” and the ventricular hypertrophy entry is recorded as “reduced”. In data set [3] (setting [6]), the “contractility of the heart” value is listed as “did not effect”, the “left ventricular systolic pressure” value is on record as “reduced” and the ventricular hypertrophy result was “reduced”. Further, the “onset of antihypertensive effects” value in data set [4] was 30 to 60 min.
